In patent US20080233127A1, “IMIDAZOLOPYRIMIDINE ANALOGS AND THEIR USE AS PI3 KINASE AND MTOR INHIBITORS” (Wyeth, priority 2007, published 2008) one finds IC50 and melting point data, which are given here for eleven compounds.

The target in one data set is T1, human TOR (Homo sapiens, UniProt P42345).
T1 construct: FLAG
The data set is described as follows: mTOR enzyme assay (DELFIA format, purified FLAG-TOR, His6-S6K substrate). In kind it is biochemical. The note with it: 100 μM ATP, 1.25 μM His6-S6K, 2 hours at room temperature; read-out: TOR Kinase Median IC50.

Another data set concerns the target PI3 Kinase. The data set is described as follows: PI3K fluorescence polarization assay. In kind it is biochemical. Conditions: 25 μM ATP, diC8-PI(4,5)P2 substrate, 1 hour at 25° C.; read-out: PI3 Kinase Median IC50.

Experimental for PI3 Kinase: Nunc 384 well black polypropylene fluorescent plates are used for PI3K assays. Reactions are quenched by the addition of EDTA to a final concentration of 10 mM. Final reaction volumes are 10 μl. […] Reactions are allowed to proceed for one hour at 25° C. After 1 hour, GST-tagged GRP1 (general receptor for phosphoinositides) PH domain fusion protein is added to a final concentration of 100 nM, and BODIPY-TMRI(1,3,4,5)P4 (Echelon) is also added to a final concentration of 5 nM. Final sample volumes are 25 μl with a final DMSO concentration of 0.8%. Assay Plates are read on Perkin-Elmer Envision plate readers with appropriate filters for Tamra [BODIPY-TMRI(1,3,4,5)P4].

`Nc1ncc(-c2nc(N3CCOCC3)c3ncn(C4CCN(Cc5ccccc5)CC4)c3n2)cn1` [Compound 31, 5-[9-(1-benzylpiperidin-4-yl)-6-morpholin-4-yl-9H-purin-2-yl]pyrimidin-2-amine]: the melting point (in general, the temperature of the solid-liquid transition) was in the range of 238 to 240 °C. Besides, at human TOR, the half-maximal inhibitory concentration (IC50) (usually the concentration that inhibits the measured activity by half) is 220 nM. At PI3 Kinase, the IC50 worked out at 43 nM.
Turning to `Nc1ccc(-c2nc(N3CCOCC3)c3ncn(C4CCN(Cc5ccccc5)CC4)c3n2)cn1` [Compound 32, 5-[9-(1-benzylpiperidin-4-yl)-6-morpholin-4-yl-9H-purin-2-yl]pyridin-2-amine], the melting point was 198 to 200 °C. Also, the IC50 at human TOR was 120 nM. In addition, the 50% inhibitory concentration (IC50) at PI3 Kinase was 160 nM.
On to `CN(C)c1ccc(CN2CCC(n3cnc4c(N5CCOCC5)nc(-c5cccc(O)c5)nc43)CC2)c2ccccc12` [Compound 83, 3-[9-(1-{[4-(dimethylamino)-1-naphthyl]methyl}piperidin-4-yl)-6-morpholin-4-yl-9H-purin-2-yl]phenol], for which the IC50 on human TOR worked out at 360 nM; on PI3 Kinase, 83 nM.
Turning to `Oc1cccc(-c2nc(N3CCOCC3)c3ncn(C4CCN(Cc5ccc(F)nc5)CC4)c3n2)c1` [Compound 84, 3-(9-{1-[(6-fluoropyridin-3-yl)methyl]piperidin-4-yl}-6-morpholin-4-yl-9H-purin-2-yl)phenol], the IC50 at human TOR was determined as 310 nM; at PI3 Kinase, 70 nM.
For the compound `Oc1cccc(-c2nc(N3CCOCC3)c3ncn(CCN4CCCCC4)c3n2)c1` [Compound 85, 3-[6-morpholin-4-yl-9-(2-piperidin-1-ylethyl)-9H-purin-2-yl]phenol], the half-maximal inhibitory concentration (IC50) came to 9800 nM on human TOR and 163 nM at PI3 Kinase.
In the case of `OCc1cccc(-c2nc(N3CCOCC3)c3ncn(CCN4CCCCC4)c3n2)c1` [Compound 86, {3-[6-morpholin-4-yl-9-(2-piperidin-1-ylethyl)-9H-purin-2-yl]phenyl}methanol], the IC50 came out at 13000 nM on human TOR and 91 nM at PI3 Kinase.
Take `Oc1cncc(-c2nc(N3CCOCC3)c3ncn(C4CCN(Cc5ccccc5)CC4)c3n2)c1` [Compound 87, 5-[9-(1-benzylpiperidin-4-yl)-6-morpholin-4-yl-9H-purin-2-yl]pyridin-3-ol]: the IC50 came to 550 nM on human TOR and 87 nM at PI3 Kinase.
As to `Oc1cncc(-c2nc(N3CCOCC3)c3ncn(C4CCN(Cc5ccc(F)nc5)CC4)c3n2)c1` [Compound 88, 5-(9-{1-[(6-fluoropyridin-3-yl)methyl]piperidin-4-yl}-6-morpholin-4-yl-9H-purin-2-yl)pyridin-3-ol], the half-maximal inhibitory concentration (IC50) at human TOR was 500 nM; on PI3 Kinase, 85 nM.
As for `CNC(=O)Nc1ccc(-c2nc(N3CCOCC3)c3ncn(C4CCN(Cc5cccnc5)CC4)c3n2)cc1` [Compound 89, 1-methyl-3-(4-(6-morpholino-9-(1-(pyridin-3-ylmethyl)piperidin-4-yl)-9H-purin-2-yl)phenyl)urea], the results for the IC50 at human TOR and at PI3 Kinase were 9.7 nM and 340 nM, respectively.
`CCNC(=O)Nc1ccc(-c2nc(N3CCOCC3)c3ncn(C4CCN(Cc5cccnc5)CC4)c3n2)cc1` [Compound 90, 1-ethyl-3-(4-(6-morpholino-9-(1-(pyridin-3-ylmethyl)piperidin-4-yl)-9H-purin-2-yl)phenyl)urea]: the IC50 at human TOR stood at 12 nM; on PI3 Kinase, 1350 nM.
`C=CC(=O)n1cnc2c(N3CCOCC3)nc(-c3cccc(O)c3)nc21` [Compound 91, 1-(2-(3-hydroxyphenyl)-6-morpholino-9H-purin-9-yl)prop-2-en-1-one]: the half-maximal inhibitory concentration (IC50) on human TOR is 73 nM; at PI3 Kinase, 43 nM.
